# Test system: 855422-203-R-J1-PDC complex spheroid viability
# Assay: Anticancer human tumor 855422-203-R-J1-PDC patient-derived bladder carcinoma cell line growth inhibition [POLQ]
# Settings: for IC50: curve of first compound; for viability, T/C: stronger effect = lower value
# Procedure, shortened: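 PDC + HUVEC + MSC complex spheroids; POLQ inhibitors ± partner drugs; top conc. at/near clinical Cmax, else 10 microM (SN-38 1 microM), half-log dilutions; 37 degrees C, 5% CO2.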
# [1] = second compound 0.0316 µM, first compound 0.0316 µM
# [2] = second compound 0.0316 µM, first compound 0.1 µM
# [3] = second compound 0.0316 µM, first compound 0.316 µM
# [4] = second compound 0.0316 µM, first compound 1 µM
# [5] = second compound 0.0316 µM, first compound 3.16 µM
# [6] = second compound 0.0316 µM, first compound 10 µM
# [7] = second compound 0.1 µM, first compound 0.0316 µM
# [8] = second compound 0.1 µM, first compound 0.1 µM
# [9] = second compound 0.1 µM, first compound 0.316 µM
# [10] = second compound 0.1 µM, first compound 1 µM
# [11] = second compound 0.1 µM, first compound 3.16 µM
# [12] = second compound 0.1 µM, first compound 10 µM
# [13] = second compound 0.316 µM, first compound 0.0316 µM
# [14] = second compound 0.316 µM, first compound 0.1 µM
# [15] = second compound 0.316 µM, first compound 0.316 µM
# [16] = second compound 0.316 µM, first compound 1 µM
# [17] = second compound 0.316 µM, first compound 3.16 µM
# [18] = second compound 0.316 µM, first compound 10 µM
# [19] = second compound 1 µM, first compound 0.0316 µM
# [20] = second compound 1 µM, first compound 0.1 µM
# [21] = second compound 1 µM, first compound 0.316 µM
# [22] = second compound 1 µM, first compound 1 µM
# [23] = second compound 1 µM, first compound 3.16 µM
# [24] = second compound 1 µM, first compound 10 µM
# [25] = second compound 3.16 µM, first compound 0.0316 µM
# [26] = second compound 3.16 µM, first compound 0.1 µM
# [27] = second compound 3.16 µM, first compound 0.316 µM
# [28] = second compound 3.16 µM, first compound 1 µM
# [29] = second compound 3.16 µM, first compound 3.16 µM
# [30] = second compound 3.16 µM, first compound 10 µM
# [31] = second compound 10 µM, first compound 0.0316 µM
# [32] = second compound 10 µM, first compound 0.1 µM
# [33] = second compound 10 µM, first compound 0.316 µM
# [34] = second compound 10 µM, first compound 1 µM
# [35] = second compound 10 µM, first compound 3.16 µM
# [36] = second compound 10 µM, first compound 10 µM
# 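Also: spheroids exposed to compounds for seven days before readout.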
compound,measurement,setting,value
O=C(c1cc(Cc2n[nH]c(=O)c3ccccc23)ccc1F)N1CCN(C(=O)C2CC2)CC1 + COC1C(OC(N)=O)C(O)C(Oc2ccc3c(O)c(NC(=O)c4ccc(O)c(CC=C(C)C)c4)c(=O)oc3c2C)OC1(C)C,IC50,second compound 0.0316 µM,> 10 µM
same,IC50,second compound 0.1 µM,> 10 µM
same,IC50,second compound 0.316 µM,> 10 µM
same,IC50,second compound 1 µM,> 10 µM
same,IC50,second compound 3.16 µM,> 10 µM
same,IC50,second compound 10 µM,> 10 µM
same,"viability, T/C",[1],107%
same,"viability, T/C",[2],107%
same,"viability, T/C",[3],122%
same,"viability, T/C",[4],90.8%
same,"viability, T/C",[5],95.6%
same,"viability, T/C",[6],78.8%
same,"viability, T/C",[7],93.3%
same,"viability, T/C",[8],111%
same,"viability, T/C",[9],109%
same,"viability, T/C",[10],104%
same,"viability, T/C",[11],93.8%
same,"viability, T/C",[12],83.7%
same,"viability, T/C",[13],95.9%
same,"viability, T/C",[14],105%
same,"viability, T/C",[15],102%
same,"viability, T/C",[16],114%
same,"viability, T/C",[17],101%
same,"viability, T/C",[18],67.2%
same,"viability, T/C",[19],108%
same,"viability, T/C",[20],101%
same,"viability, T/C",[21],95.5%
same,"viability, T/C",[22],118%
same,"viability, T/C",[23],95.8%
same,"viability, T/C",[24],66.9%
same,"viability, T/C",[25],111%
same,"viability, T/C",[26],90.8%
same,"viability, T/C",[27],106%
same,"viability, T/C",[28],105%
same,"viability, T/C",[29],91.2%
same,"viability, T/C",[30],68.1%
same,"viability, T/C",[31],104%
same,"viability, T/C",[32],111%
same,"viability, T/C",[33],106%
same,"viability, T/C",[34],96.7%
same,"viability, T/C",[35],103%
same,"viability, T/C",[36],60.2%
CCCS(=O)(=O)Nc1ccc(F)c(C(=O)c2c[nH]c3ncc(-c4ccc(Cl)cc4)cc23)c1F + Nc1ccc(C#CCN(C(=O)Cc2ncc(C(F)(F)F)cc2C(F)(F)F)c2ccc(F)cc2)nn1,IC50,second compound 0.0316 µM,5.93 µM
same,IC50,second compound 0.1 µM,5.88 µM
same,IC50,second compound 0.316 µM,6.2 µM
same,IC50,second compound 1 µM,5.98 µM
same,IC50,second compound 3.16 µM,6.02 µM
same,IC50,second compound 10 µM,5.89 µM
same,"viability, T/C",[1],101%
same,"viability, T/C",[2],116%
same,"viability, T/C",[3],92.3%
same,"viability, T/C",[4],103%
same,"viability, T/C",[5],112%
same,"viability, T/C",[6],4.15%
same,"viability, T/C",[7],99%
same,"viability, T/C",[8],117%
same,"viability, T/C",[9],109%
same,"viability, T/C",[10],107%
same,"viability, T/C",[11],103%
same,"viability, T/C",[12],4.49%
same,"viability, T/C",[13],116%
same,"viability, T/C",[14],113%
same,"viability, T/C",[15],93.1%
same,"viability, T/C",[16],106%
same,"viability, T/C",[17],109%
same,"viability, T/C",[18],9.19%
same,"viability, T/C",[19],106%
same,"viability, T/C",[20],106%
same,"viability, T/C",[21],96.2%
same,"viability, T/C",[22],106%
same,"viability, T/C",[23],109%
same,"viability, T/C",[24],5.86%
same,"viability, T/C",[25],93.5%
same,"viability, T/C",[26],108%
same,"viability, T/C",[27],101%
same,"viability, T/C",[28],101%
same,"viability, T/C",[29],103%
same,"viability, T/C",[30],9.79%
same,"viability, T/C",[31],94%
same,"viability, T/C",[32],102%
same,"viability, T/C",[33],101%
same,"viability, T/C",[34],112%
same,"viability, T/C",[35],99.8%
same,"viability, T/C",[36],7.62%
COc1cccc(OCCCN)c1-c1cc(Nc2cnc(C#N)cn2)n[nH]1 + Cc1cccc(N(C)C(=O)C2C(O)CCN2c2nc(C)cc(C(F)(F)F)c2C#N)c1,IC50,second compound 0.0316 µM,0.0263 µM
same,IC50,second compound 0.1 µM,0.0239 µM
same,IC50,second compound 0.316 µM,0.0256 µM
same,IC50,second compound 1 µM,0.0247 µM
same,IC50,second compound 3.16 µM,0.0237 µM
same,IC50,second compound 10 µM,0.0217 µM
same,"viability, T/C","second compound 0.0316 µM, first compound 0.00316 µM",122%
same,"viability, T/C","second compound 0.0316 µM, first compound 0.01 µM",162%
same,"viability, T/C",[1],32.3%
same,"viability, T/C",[2],11.9%
same,"viability, T/C",[3],8.13%
same,"viability, T/C",[4],5.03%
same,"viability, T/C","second compound 0.1 µM, first compound 0.00316 µM",98.7%
same,"viability, T/C","second compound 0.1 µM, first compound 0.01 µM",149%
same,"viability, T/C",[7],26.4%
same,"viability, T/C",[8],8.17%
same,"viability, T/C",[9],7.52%
same,"viability, T/C",[10],6.18%
same,"viability, T/C","second compound 0.316 µM, first compound 0.00316 µM",99.1%
same,"viability, T/C","second compound 0.316 µM, first compound 0.01 µM",144%
same,"viability, T/C",[13],34.1%
same,"viability, T/C",[14],13.6%
same,"viability, T/C",[15],7.31%
same,"viability, T/C",[16],6.21%
same,"viability, T/C","second compound 1 µM, first compound 0.00316 µM",97.4%
same,"viability, T/C","second compound 1 µM, first compound 0.01 µM",133%
same,"viability, T/C",[19],32.1%
same,"viability, T/C",[20],9.07%
same,"viability, T/C",[21],8.72%
same,"viability, T/C",[22],8.98%
same,"viability, T/C","second compound 3.16 µM, first compound 0.00316 µM",87.8%
same,"viability, T/C","second compound 3.16 µM, first compound 0.01 µM",183%
same,"viability, T/C",[25],21.4%
same,"viability, T/C",[26],14.6%
same,"viability, T/C",[27],7.43%
same,"viability, T/C",[28],5.57%
same,"viability, T/C","second compound 10 µM, first compound 0.00316 µM",137%
same,"viability, T/C","second compound 10 µM, first compound 0.01 µM",94.1%
same,"viability, T/C",[31],28.3%
same,"viability, T/C",[32],11.2%
same,"viability, T/C",[33],9.5%
same,"viability, T/C",[34],7.47%
